Source: patent publication US20140066381A1, “NOVEL PEPTIDES THAT ARE MODULATORS OF THE PROTEIN TRF2 AND COMPOSITIONS CONTAINING SAME” (ISP INVESTMENTS INC., priority 2011, published 2014)
Ends that are not written are not given here.

Columns and labels:
Assay type in all cases: cell-based
Human skin biopsies = Human skin biopsies rendered senescent in vitro using methylglyoxal, H&E morphology
Procedure: Human skin biopsies are rendered artificially senescent in vitro, by means of a treatment with methylglyoxal (MGO). For this, des punch de 6-mm human skin punch biopsies are incubated at the air-liquid interface in a specific culture medium. They are then treated with 5 mM or 10 mM of MGO (Sigma) deposited at the surface of the biopsies and in the culture medium. The biopsies are then treated with: • condition 1: 20 μL of PBS 1×, or • condition 2: 20 μL of peptide SEQ ID NO: 4 at 1%, or • condition 3: 20 μL of peptide SEQ ID NO: 4 at 3%.
The biopsies are fixed and embedded in paraffin, and are then cut into 4-μm sections using a microtome. Hematoxyline/eosine (H&E) immunolabeling is performed on the sections previously cut and their morphology and structure are studied by microscopic observation (under a microscope Nikon Eclipse E600, objective 40×).

vimentin = experiment: Vimentin immunofluorescence detection in fibroblasts aged by replicative senescence; conditions: human fibroblasts, daily application of peptide at 1% or 3%, more than 17 passages, immunofluorescence at passages 6 and 17
Procedure: Human fibroblasts are placed in culture in a specific medium and kept in culture for a long treatment (for more than 17 passages), by means of a daily application of the peptide SEQ ID NO: 2 at a concentration of 1% or of 3%. A vimentin immunofluorescence detection experiment is performed on the cells in culture passages 6 and 17. The cells are then washed with PBS, fixed with 3.7% formaldehyde for 10 minutes, permeabilized by means of 0.2% Triton X-100 for 10 minutes (Fisher Chemical) and incubated with 1% BSA (Euromedex) for 15 minutes. An anti-vimentin antibody (Tebu Santa Cruz) is then added and incubated at a dilution of 1/200 for 2 h at room temperature. After washing with PBS, a Donkey anti-mouse IgG antibody, conjugated with a marker ALEXA FLUOR® 488, is added at a dilution of 1/1000 and incubated for one hour at room temperature. Finally, the sections are mounted with Fluoromount G (Electron Microscopy Science) and examined under a microscope (Nikon Eclipse 80i, enlargement 40×).

TRF2 protein = TRF2 protein expression by Western Blot in human fibroblasts with or without TRF2 siRNA; conditions: 72 h
Procedure: To quantify the efficacy of a peptide compound according to the invention, on the overexpression of TRF2 in a human fibroblast population, the gene coding for TRF2 was “turned off” by using the siRNA technique.
Fibroblast cells are placed in culture in a 6-well plate until 60% confluence. The culture medium is renewed by adding the peptide SEQ ID NO: 2 at 1% under the conditions described below. Then, 100 μL of a mixture previously produced containing, in the end, 10 nM of TRF2 siRNA and the transfection agent are gently added, one drop at a time, and one well at a time. The cell culture plate is incubated at 37° C. and 5% in CO2 for 72 h. The culture medium is renewed every 2 days. Four conditions were established: • condition 1: control without siRNA and without active agent • condition 2: cells transfected with the siRNA, without active agent • condition 3: cells not transfected but treated with the active agent • condition 4: cells transfected with the siRNA and treated with the active agent
The quantification of the TRF2 expression is observed by the classic immunotransfer technique (Western Blot) performed with an anti-TRF2 antibody and according to a classic protocol. […]

Row | Substance | damage inflicted on the structures of the biopsies vs control conditions (Human skin biopsies; 6-mm human skin punch biopsies, 5 mM or 10 mM MGO, 20 μL of peptide at 1% or 3%, H&E) | protective effect of the peptide, 3% dose vs 1% dose (Human skin biopsies; human skin biopsies treated with MGO, 20 μL of peptide at 1% vs 3%) | vimentin expression in aged fibroblasts, treated vs not treated (vimentin) | increase in the expression of the TRF2 protein with respect to the control (TRF2 protein; condition 3 vs condition 1: cells not transfected, peptide at 1%, Western Blot) | reduction in TRF2 expression with respect to the control condition (TRF2 protein; condition 4 vs condition 1: cells transfected with 10 nM TRF2 siRNA and treated with peptide at 1%)
1 | Ala-Met-Lys-Lys-Gln-Lys-Trp-NH2 (AMKKQKW-NH2) [SEQ ID NO: 4] | much less significant | dose-dependent |  |  | 
2 | Lys-Lys-Gln-Lys-Trp-NH2 (KKQKW-NH2) [SEQ ID NO: 2] |  |  | express less vimentin | 17% | no more than 18%
